The values below are quoted from earlier work in patent US8008021B2, “N-terminal truncation of cardiac troponin subunits and their roles in cardiovascular disease” (Evanston Northwestern Healthcare, priority 2006, dated 2011).

The data set deals with T1, m-calpain (Homo sapiens, UniProt P17655).
T1 sequence (P17655 1-700): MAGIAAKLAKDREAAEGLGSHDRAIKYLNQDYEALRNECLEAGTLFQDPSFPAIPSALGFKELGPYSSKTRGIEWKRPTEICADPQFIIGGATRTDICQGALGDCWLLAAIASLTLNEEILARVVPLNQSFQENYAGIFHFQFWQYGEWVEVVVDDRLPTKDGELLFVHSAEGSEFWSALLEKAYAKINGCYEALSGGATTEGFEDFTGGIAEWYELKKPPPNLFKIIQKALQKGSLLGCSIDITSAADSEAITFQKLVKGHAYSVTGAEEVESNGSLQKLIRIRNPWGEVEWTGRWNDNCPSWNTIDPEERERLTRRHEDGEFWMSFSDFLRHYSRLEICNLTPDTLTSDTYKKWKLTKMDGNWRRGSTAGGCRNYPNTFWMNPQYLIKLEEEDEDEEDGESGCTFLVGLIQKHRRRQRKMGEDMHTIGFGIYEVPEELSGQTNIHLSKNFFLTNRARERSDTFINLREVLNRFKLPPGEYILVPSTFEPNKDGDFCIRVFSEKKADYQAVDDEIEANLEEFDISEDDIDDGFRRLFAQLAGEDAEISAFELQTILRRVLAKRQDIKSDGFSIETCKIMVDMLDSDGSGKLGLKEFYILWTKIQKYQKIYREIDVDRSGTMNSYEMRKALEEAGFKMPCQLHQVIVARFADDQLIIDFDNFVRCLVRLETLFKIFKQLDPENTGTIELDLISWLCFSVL
T1 sequence (P04632 1-268 partner): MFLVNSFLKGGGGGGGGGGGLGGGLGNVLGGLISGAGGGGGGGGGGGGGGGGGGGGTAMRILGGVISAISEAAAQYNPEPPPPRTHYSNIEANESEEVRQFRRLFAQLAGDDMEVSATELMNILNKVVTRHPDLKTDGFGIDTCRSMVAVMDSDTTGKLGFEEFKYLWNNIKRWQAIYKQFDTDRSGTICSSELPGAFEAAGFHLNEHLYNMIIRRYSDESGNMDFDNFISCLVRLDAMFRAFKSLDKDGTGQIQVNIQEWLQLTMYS
The following applies: reference 43; read-out: apparent inhibition constant Ki against m-calpain; cited from earlier work.

Structures are written as SMILES.

For `O=C(O)/C(S)=C/c1c[nH]c2ccc(F)cc12` [PD151746], the Ki is 5330 ± 770 nM.

Turning to `O=C(O)/C(S)=C/c1ccc(I)cc1` [PD150606], the Ki is 370 ± 30 nM.
